Measured values from ChEMBL document CHEMBL4190184, “Synthesis and Biological Evaluation of Benzocyclooctene-based and Indene-based Anticancer Agents that Function as Inhibitors of Tubulin Polymerization” (Medchemcomm, 2016).
The source made the active and inactive calls. No cut-off for these calls is given here.

Columns and labels:
[1] = tested on: SK-OV-3; experiment: Growth inhibition of human SKOV3 cells after 48 hrs by SRB assay; assay type: functional; settings: SK-OV-3, 48 h
[2] = tested on: NCI-H460; experiment: Growth inhibition of human NCI-H460 cells after 48 hrs by SRB assay; assay type: functional; settings: NCI-H460, 48 h
[3] = tested on: DU-145; experiment: Growth inhibition of human DU145 cells after 48 hrs by SRB assay; assay type: functional; settings: DU-145, 48 h
[4] = Inhibition of bovine brain tubulin polymerization preincubated for 15 mins followed by GTP addition measured after 20 mins by spectrophotometric method; set-up: species or system Bos taurus
[5] = tested on: MCF7; experiment: Induction of vascular disruption in human luc-GFP-mCherry-tagged MCF7 cells implanted in SCID-NOD mouse assessed as reduction in bioluminescence at 120 mg/kg, ip administered as single dose measured at 4 hrs post dose by luciferase reporter gene based imaging analysis relative to control; assay type: functional; set-up: scale not given: the % may be the effect or the level left
[6] = tested on: MCF7; experiment: Induction of necrosis in human luc-GFP-mCherry-tagged MCF7 cells implanted in SCID-NOD mouse at 120 mg/kg, ip administered as single dose measured after 48 hrs by haematoxylin and eosin staining based microscopy; assay type: functional, organism-based
[7] = organism: Bos taurus; experiment: Inhibition of [3H]colchicine binding to bovine brain tubulin at 5 uM after 10 mins by scintillation counting method relative to control
[8] = tested on: MCF7; experiment: Induction of vascular disruption in human luc-GFP-mCherry-tagged MCF7 cells implanted in SCID-NOD mouse assessed as reduction in bioluminescence at 120 mg/kg, ip administered as single dose measured at 24 to 48 hrs post dose by luciferase reporter gene based imaging analysis; assay type: functional, organism-based

Row | SMILES | GI50 [1] [nM] | GI50 [2] [nM] | GI50 [3] [nM] | IC50 [4] [nM] | Activity [5] [%] | Activity [6] | inhibition [7] [%] | Activity [8]
1 | COc1cc(C2=CCc3c2ccc(OC)c3OC)cc(OC)c1OC | 9460 | 42200 | 34600 | > 20000 | – | – | – | –
2 | COc1ccc(/C=C\c2cc(OC)c(OC)c(OC)c2)cc1OP(=O)(O)O [FOSBRETABULIN] | 1.9 | 2.82 | 3.36 | > 20000 | 80 | Active | – | –
3 | COc1ccc2c(c1O)CC=C2c1cc(OC)c(OC)c(OC)c1 | 704 | 388 | 362 | 11000 | – | – | 17 | –
4 | COc1cc(C2=CCc3c2ccc(OC)c3OP(=O)(O)O)cc(OC)c1OC | 334 | 1500 | 3340 | > 20000 | – | – | – | –
5 | COc1ccc2c(c1O)CCCC/C=C\2c1cc(OC)c(OC)c(OC)c1 | 81.1 | 107 | 105 | 1200 | – | – | 78 | –
6 | COc1ccc2c(c1)CC=C2c1cc(OC)c(OC)c(OC)c1 | 6150 | 4020 | 4660 | > 20000 | – | – | – | –
7 | COc1ccc2c(c1)CCCC/C=C\2c1cc(OC)c(OC)c(OC)c1 | 400 | 431 | 570 | 3000 | – | – | 29 | –
8 | COc1cc(/C2=C/CCCCc3c2ccc(OC)c3OC)cc(OC)c1OC | 512 | 395 | 448 | 4500 | – | – | 31 | –
9 | COc1cc(/C2=C/CCCCc3c2ccc(OC)c3OP(=O)([O-])[O-])cc(OC)c1OC.[Na+].[Na+] | 36.6 | 26 | 41 | > 20000 | 80 | Active | – | Active
